Measured values from patent US8080235B2, “Protein kinase A reporters useful in high throughput assays” (The Johns Hopkins University, priority 2005, dated 2011).

What was measured:
Type in all cases: cell-based
PKA activity [1] = test: AKAR3 live cell 96-well plate reader assay (yellow/cyan emission ratio)
Procedure: (§1) Live Cell Plate Reading. HEK-293 cells were transfected with AKAR3 or ICUE3 using calcium phosphate at 40% confluency and grown for 40 hours. Cells were then trypsinized and plated in a Costar 3603 96-well plate (Corning) at a density of 150,000 cells per well. After incubation for another 24 hours, cells were washed once with HBSS and left in 150 μl of HBSS at 20-25° C. Fluorescence reading was taken on a FLUOstar OPTIMA fluorescence microplate reader (BMG Labtechnologies Inc.) using a 420DF20 excitation filter and two emission filters (470DF40 for cyan and 535DF25 for yellow). A baseline was established in three cycles, each consisting of a full plate reading of yellow intensity, followed by a reading of cyan intensity.
(§2) Each cycle lasted between 64 and 92 seconds. Cells were then treated with ISO, Fsk, H89, Propranolol (Pro; Sigma), or 3-isobutyl-1-methylxanthine (IBMX; Sigma) as indicated. Readings were taken in additional cycles. FRET change was calculated as the percent increase of emission ratios (yellow-to-cyan for AKAR and cyan-to-yellow for ICUE) over baseline for each well during a given cycle. Several parameters were calculated to assess the efficiency of the assay, including Z′ factor, coefficient of variation, and signal to noise (S/N) ratio (22).
AKAR2 (FIG. 4). This reporter, AKAR3 (FIG. 1b), was tested in a 96-well plate format. […] As negative controls, addition of buffer of 2% DMSO generated minimal changes in emission ratios. This 96-well plate assay was sensitive and reproducible, with a signal to noise ratio of 30.3, a Z′ factor of 0.84, and a coefficient of variation (CV) of 1.8% for the Fsk-stimulated response.
To provide specific readout of compartmentalized PKA activities, we introduced a C-terminal nuclear export signal (NES) to AKAR3 . In the plate reader assay using AKAR3 -NES (FIG. 1d), cytosolic PKA activity was recorded without contamination of nuclear activity, which has slower kinetics due to diffusional translocation of the catalytic subunit from cytosol to nucleus. […] Thus, sensor targeting provides increased temporal and spatial resolution and can be used to reveal how individual signaling microdomains, such as kinase-containing signaling complexes, are affected by drugs or other perturbations, adding another level of capacity to the non-image-based high-throughput assays of the invention.

cAMP [2] = test: ICUE3 live cell high-throughput cAMP plate reader assay (cyan/yellow emission ratio)
Procedure: as §1, §2
To follow the activity of the signaling pathway and to assay related drug targets in parallel, we developed a live cell-based high-throughput assay for cAMP, a second messenger that is generated via activation of Gs-coupled GPCRs and exerts its effects by activating PKA and other effectors. Similar improvement approaches were first applied to create a reporter that more than doubled the response of previous “Indicator for cAMP Using Epac” (ICUE), which generates a decrease in FRET upon binding of cAMP (FIG. 5). […] Possible sources of the variation and reduced signal are transfection efficiency and expression variability.

cAMP [3] = test: ICUE high-throughput screening of Johns Hopkins Clinical Compound Library (stable cells); settings: 10 μM compound, then 0.25 μM Iso plus 100 μM IBMX
Procedure: Live Cell High-Throughput Screening. HEK-293 cells transiently expressing AKAR or stably expressing ICUE were trypsinized and plated in a Costar 3606 96-well plate (Corning) at a density of 150,000 cells per well. After incubation for 24 hours, cells were washed once with HBSS and left in 190 μl of HBSS at 20-25° C. Fluorescence readings were taken as described above, with each cycle lasting 90 seconds. Following baseline acquisition, cells in each experimental well were treated with a compound from the Johns Hopkins Clinical Compound Library to a final concentration of 10 μM. Control cells were treated with 10 μL of 10% fetal bovine serum (FBS) in a solution of phosphate buffered saline (PBS) at pH 7.4, which is the solution used to dissolve library compounds.
Readings were taken for 10 cycles spanning a time of approximately 15 minutes, after which cells in experimental wells and positive controls were treated with 0.25 μM ISO (AKAR) or 0.25 μM Iso plus 100 μM IBMX (ICUE), while negative controls received 0.5% DMSO in HBSS. Ten final cycles were then performed.
FRET responses were calculated as described above. Negative control (10% FBS, 0.5% DMSO) and positive control (10% FBS, 0.25 μM ISO) curves were generated. Agonist hits were defined as compounds eliciting responses larger than six times the standard deviation above the baseline. […]

PKA activity [4] = test: AKAR3 high-throughput screening of Johns Hopkins Clinical Compound Library; settings: 10 μM compound about 15 min, then 0.25 μM ISO
Procedure: Live Cell High-Throughput Screening. […] After incubation for 24 hours, cells were washed once with HBSS and left in 190 μl of HBSS at 20-25° C. Fluorescence readings were taken as described above, with each cycle lasting 90 seconds. Following baseline acquisition, cells in each experimental well were treated with a compound from the Johns Hopkins Clinical Compound Library to a final concentration of 10 μM. Control cells were treated with 10 μL of 10% fetal bovine serum (FBS) in a solution of phosphate buffered saline (PBS) at pH 7.4, which is the solution used to dissolve library compounds.
Ten final cycles were then performed.
FRET responses were calculated as described above. […] Agonist hits were defined as compounds eliciting responses larger than six times the standard deviation above the baseline. Antagonist hits were defined as compounds which decreased the ISO stimulated response by 50% or by six times the standard deviation.
In a primary screening, 160 compounds from the Johns Hopkins Clinical Compound Library were added to AKAR3-expressing HEK-293 cells in individual wells of 96-well plates to a final concentration of 10 μM after a base line reading. Time courses were recorded to monitor any fluorescence changes upon drug addition and to identify hits which activate PKA as potential agonists.
Potential agonists were identified by selecting compounds which stimulated emission ratio changes larger than 6 times the standard deviation above the negative control (FIG. 3a ).

Question: `CC(C)NCC(O)COc1cccc2ccccc12` (stereo not drawn) [Pro, propranolol] was tested. Which “effect on ISO-induced AKAR3 response” value (PKA activity [1]; 10 μM Pro, FIG. 2) did it give?
Answer: The value was “inhibited”.

Question: What about the “effect on Fsk-stimulated AKAR3 response” value (PKA activity [1]; FIG. 2d) of the same compound?
Answer: The value was “no effect”.

Question: And the “effect on Fsk-stimulated ICUE3 response” value (cAMP [2]; FIG. 2c)?
Answer: Its value is “no effect”.

Question: What about the “effect on ISO-induced ICUE3 response” value (cAMP [2]; co-treatment, 10 μM Pro, FIG. 2a) of the same compound?
Answer: Its value is “inhibited”.

Question: And the “antagonist screen: effect on ISO-stimulated ICUE response” value (cAMP [3])?
Answer: The value was “potently inhibited”.

Question: What about the “antagonist screen: effect on ISO-stimulated AKAR response” value (PKA activity [4]) of the same compound?
Answer: The value was “potently inhibited”.
